We go through 8 compounds from ChEMBL document CHEMBL5465560, “Selectivity Literature for EUbOPEN Chemogenomic Library” (2024).

In test [1] the target is T1, Protein kinase C epsilon type (Homo sapiens) (UniProt Q02156).
T1 sequence (whole entry): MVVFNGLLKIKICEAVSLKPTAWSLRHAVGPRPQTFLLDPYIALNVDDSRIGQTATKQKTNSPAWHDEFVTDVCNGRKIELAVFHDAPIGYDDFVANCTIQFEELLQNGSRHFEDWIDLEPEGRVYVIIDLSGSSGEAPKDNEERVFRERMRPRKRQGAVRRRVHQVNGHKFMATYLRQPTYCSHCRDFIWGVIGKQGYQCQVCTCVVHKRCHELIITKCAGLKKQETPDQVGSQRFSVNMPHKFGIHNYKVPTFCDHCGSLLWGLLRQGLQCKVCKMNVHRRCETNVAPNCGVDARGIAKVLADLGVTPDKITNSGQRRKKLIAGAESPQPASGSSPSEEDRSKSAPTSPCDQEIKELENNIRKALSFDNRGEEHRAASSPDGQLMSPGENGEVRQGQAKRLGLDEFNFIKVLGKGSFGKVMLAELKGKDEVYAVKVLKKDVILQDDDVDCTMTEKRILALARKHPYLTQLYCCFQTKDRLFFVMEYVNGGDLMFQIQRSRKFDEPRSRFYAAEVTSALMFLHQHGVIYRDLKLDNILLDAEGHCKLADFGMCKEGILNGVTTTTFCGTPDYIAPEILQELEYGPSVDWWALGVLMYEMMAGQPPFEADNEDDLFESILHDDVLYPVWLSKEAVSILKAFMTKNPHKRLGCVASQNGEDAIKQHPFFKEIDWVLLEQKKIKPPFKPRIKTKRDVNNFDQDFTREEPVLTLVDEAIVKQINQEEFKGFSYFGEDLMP
The test is described as follows: Selectivity interaction (KinomeScan (DiscoverX)) EUB0000666a PRKCE. Particulars: at 10 µM.

Test [2] deals with Mitogen-activated protein kinase kinase kinase kinase 5 (Homo sapiens) (UniProt Q9Y4K4). Kind of test: Selectivity interaction (KinomeScan (DiscoverX)) EUB0001550a MAP4K5. Particulars: at 1 µM.
For test [3], the target named is Histone-lysine N-methyltransferase KMT5B (Homo sapiens) (UniProt Q4FZB7). Particulars: at 1 µM.
In test [4] the target is Receptor-type tyrosine-protein kinase FLT3 (Homo sapiens) (UniProt P36888). Kind of test: Selectivity interaction (ProQinase) EUB0000171b FLT3. Particulars: at 5 µM.
For test [5], the target named is T2, Bone morphogenetic protein receptor type-2 (Homo sapiens) (UniProt Q13873).
T2 sequence (whole entry): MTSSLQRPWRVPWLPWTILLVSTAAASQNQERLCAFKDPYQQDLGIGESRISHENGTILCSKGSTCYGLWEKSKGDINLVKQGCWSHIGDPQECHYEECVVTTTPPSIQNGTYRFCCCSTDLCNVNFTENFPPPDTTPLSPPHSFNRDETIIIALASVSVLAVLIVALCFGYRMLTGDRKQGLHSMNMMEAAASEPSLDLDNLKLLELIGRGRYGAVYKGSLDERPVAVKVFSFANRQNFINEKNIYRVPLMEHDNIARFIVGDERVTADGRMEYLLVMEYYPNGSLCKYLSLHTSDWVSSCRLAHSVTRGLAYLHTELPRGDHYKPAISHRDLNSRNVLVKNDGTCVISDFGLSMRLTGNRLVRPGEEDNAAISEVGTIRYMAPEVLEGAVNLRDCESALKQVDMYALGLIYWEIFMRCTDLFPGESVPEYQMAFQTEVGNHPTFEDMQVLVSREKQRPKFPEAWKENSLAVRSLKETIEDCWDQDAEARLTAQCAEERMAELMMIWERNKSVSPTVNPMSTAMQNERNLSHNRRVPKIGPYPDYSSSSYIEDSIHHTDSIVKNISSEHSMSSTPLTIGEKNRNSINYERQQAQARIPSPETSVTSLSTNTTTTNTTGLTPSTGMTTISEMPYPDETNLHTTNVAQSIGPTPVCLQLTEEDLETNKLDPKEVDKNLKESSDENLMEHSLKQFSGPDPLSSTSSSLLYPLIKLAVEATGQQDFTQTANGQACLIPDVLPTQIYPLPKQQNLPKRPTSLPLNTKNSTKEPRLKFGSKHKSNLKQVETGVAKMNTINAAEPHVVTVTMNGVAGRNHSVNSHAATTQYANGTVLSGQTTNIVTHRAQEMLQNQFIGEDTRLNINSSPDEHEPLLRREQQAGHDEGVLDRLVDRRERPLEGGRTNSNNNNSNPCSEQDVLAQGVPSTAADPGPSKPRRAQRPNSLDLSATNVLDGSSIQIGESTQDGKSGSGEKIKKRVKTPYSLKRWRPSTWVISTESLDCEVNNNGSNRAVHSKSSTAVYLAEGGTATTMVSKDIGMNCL
The test is described as follows: Selectivity interaction (KinomeScan (DiscoverX)) EUB0001049a BMPR2. Particulars: at 1 µM.

Test [6] has as its target Serine/threonine-protein kinase Chk2 (Homo sapiens) (UniProt O96017). The test is described as follows: Selectivity interaction (KinomeScan (DiscoverX)) EUB0001049a CHEK2. Particulars: at 1 µM.
The target in test [7] is Phosphatidylinositol 4,5-bisphosphate 3-kinase catalytic subunit beta isoform (Homo sapiens) (UniProt P42338). Kind of test: Selectivity interaction (KinomeScan (DiscoverX)) EUB0000655a PIK3CB. Particulars: at 10 µM.
Test [8] has as its target T3, Cyclin-dependent kinase-like 2 (Homo sapiens) (UniProt Q92772).
T3 sequence (whole entry): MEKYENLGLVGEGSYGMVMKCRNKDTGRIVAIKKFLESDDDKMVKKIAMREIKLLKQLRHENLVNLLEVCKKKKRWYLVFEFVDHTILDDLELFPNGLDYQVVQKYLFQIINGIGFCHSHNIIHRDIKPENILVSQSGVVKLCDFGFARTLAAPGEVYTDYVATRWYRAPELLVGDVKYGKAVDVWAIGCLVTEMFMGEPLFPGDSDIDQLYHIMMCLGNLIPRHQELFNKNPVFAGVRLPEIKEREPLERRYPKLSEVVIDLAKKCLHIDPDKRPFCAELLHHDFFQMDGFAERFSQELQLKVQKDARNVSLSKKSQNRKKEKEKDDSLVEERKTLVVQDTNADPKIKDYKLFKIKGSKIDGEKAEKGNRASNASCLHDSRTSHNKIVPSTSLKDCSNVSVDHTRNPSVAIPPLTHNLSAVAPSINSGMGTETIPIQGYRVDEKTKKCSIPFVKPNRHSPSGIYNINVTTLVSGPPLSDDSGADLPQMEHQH
Kind of test: Selectivity interaction (KinomeScan (DiscoverX)) EUB0000618a CDKL2. Particulars: at 10 µM.

The next test has as its target Mu-type opioid receptor (Homo sapiens, UniProt P35372). The test is described as follows: Selectivity interaction (Panel of kinases, GPCRs, ion channels and transporters (enzymatic assay)) EUB0000266bCl OPRM1.

Chain of Receptor-type tyrosine-protein kinase FLT3 (Homo sapiens) (P36888 whole entry): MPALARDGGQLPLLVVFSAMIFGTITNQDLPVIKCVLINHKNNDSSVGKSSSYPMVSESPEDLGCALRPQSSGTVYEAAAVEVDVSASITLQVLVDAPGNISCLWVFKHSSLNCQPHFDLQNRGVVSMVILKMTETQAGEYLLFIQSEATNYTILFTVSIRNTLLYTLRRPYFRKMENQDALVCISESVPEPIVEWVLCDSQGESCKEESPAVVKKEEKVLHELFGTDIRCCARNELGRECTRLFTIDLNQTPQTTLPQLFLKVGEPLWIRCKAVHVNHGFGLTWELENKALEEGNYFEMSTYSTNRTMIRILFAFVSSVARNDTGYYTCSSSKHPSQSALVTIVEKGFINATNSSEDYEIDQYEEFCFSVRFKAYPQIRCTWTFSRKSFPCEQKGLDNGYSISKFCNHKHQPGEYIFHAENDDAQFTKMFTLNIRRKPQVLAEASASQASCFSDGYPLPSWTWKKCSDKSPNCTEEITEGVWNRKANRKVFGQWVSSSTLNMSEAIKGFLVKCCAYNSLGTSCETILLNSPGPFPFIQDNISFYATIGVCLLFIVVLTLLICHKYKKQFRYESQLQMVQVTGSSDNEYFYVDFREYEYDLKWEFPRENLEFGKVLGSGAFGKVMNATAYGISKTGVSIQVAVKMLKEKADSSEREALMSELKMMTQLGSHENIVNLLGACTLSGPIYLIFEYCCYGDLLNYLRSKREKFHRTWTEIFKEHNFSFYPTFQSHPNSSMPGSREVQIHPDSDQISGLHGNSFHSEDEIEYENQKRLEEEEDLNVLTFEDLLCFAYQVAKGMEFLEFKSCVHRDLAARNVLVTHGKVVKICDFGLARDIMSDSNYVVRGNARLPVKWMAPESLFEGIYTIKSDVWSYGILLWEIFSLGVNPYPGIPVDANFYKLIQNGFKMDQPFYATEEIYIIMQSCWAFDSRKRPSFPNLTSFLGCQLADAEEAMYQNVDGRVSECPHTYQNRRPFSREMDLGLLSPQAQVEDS
Chain of Mu-type opioid receptor (P35372 whole entry): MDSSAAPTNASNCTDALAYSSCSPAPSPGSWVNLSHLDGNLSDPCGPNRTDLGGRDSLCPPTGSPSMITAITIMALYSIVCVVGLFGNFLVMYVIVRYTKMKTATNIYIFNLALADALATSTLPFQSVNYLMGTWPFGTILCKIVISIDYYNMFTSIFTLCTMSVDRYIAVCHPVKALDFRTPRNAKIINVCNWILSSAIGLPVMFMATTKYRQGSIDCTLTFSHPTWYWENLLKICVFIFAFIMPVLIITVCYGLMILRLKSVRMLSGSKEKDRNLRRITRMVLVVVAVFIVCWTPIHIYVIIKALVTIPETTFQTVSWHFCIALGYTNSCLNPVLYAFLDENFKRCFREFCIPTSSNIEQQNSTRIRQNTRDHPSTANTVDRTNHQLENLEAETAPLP
Chain of Phosphatidylinositol 4,5-bisphosphate 3-kinase catalytic subunit beta isoform (Homo sapiens) (P42338 whole entry, looked up, canonical isoform): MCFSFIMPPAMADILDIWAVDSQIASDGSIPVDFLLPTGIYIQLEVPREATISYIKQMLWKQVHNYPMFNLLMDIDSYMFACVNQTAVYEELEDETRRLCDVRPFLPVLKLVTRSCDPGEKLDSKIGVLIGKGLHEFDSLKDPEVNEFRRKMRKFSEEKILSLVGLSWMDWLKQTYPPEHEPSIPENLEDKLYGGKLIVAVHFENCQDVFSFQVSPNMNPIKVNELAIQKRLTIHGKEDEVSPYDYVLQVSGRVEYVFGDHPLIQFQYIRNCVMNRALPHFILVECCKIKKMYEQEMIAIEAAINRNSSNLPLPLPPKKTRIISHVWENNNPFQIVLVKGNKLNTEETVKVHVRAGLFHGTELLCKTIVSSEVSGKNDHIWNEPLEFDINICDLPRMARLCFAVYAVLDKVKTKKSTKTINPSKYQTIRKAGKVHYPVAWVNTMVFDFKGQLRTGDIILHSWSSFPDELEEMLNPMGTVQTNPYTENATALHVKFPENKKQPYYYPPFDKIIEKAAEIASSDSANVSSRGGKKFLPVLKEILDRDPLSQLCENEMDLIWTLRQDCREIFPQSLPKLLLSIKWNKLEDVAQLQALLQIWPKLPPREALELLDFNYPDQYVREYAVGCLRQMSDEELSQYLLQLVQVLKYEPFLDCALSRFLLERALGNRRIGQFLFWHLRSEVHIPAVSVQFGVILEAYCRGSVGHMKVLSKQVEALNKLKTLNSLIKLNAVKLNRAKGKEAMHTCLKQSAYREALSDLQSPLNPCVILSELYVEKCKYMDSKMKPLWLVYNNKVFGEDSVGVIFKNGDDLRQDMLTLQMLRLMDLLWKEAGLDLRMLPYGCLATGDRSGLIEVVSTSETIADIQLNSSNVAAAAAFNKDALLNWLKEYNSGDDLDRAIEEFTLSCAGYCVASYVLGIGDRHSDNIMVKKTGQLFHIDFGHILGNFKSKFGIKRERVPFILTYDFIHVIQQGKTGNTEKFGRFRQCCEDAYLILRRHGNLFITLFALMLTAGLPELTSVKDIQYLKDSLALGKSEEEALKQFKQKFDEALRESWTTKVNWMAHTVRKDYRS
Chain of Mitogen-activated protein kinase kinase kinase kinase 5 (Homo sapiens) (Q9Y4K4 whole entry, looked up): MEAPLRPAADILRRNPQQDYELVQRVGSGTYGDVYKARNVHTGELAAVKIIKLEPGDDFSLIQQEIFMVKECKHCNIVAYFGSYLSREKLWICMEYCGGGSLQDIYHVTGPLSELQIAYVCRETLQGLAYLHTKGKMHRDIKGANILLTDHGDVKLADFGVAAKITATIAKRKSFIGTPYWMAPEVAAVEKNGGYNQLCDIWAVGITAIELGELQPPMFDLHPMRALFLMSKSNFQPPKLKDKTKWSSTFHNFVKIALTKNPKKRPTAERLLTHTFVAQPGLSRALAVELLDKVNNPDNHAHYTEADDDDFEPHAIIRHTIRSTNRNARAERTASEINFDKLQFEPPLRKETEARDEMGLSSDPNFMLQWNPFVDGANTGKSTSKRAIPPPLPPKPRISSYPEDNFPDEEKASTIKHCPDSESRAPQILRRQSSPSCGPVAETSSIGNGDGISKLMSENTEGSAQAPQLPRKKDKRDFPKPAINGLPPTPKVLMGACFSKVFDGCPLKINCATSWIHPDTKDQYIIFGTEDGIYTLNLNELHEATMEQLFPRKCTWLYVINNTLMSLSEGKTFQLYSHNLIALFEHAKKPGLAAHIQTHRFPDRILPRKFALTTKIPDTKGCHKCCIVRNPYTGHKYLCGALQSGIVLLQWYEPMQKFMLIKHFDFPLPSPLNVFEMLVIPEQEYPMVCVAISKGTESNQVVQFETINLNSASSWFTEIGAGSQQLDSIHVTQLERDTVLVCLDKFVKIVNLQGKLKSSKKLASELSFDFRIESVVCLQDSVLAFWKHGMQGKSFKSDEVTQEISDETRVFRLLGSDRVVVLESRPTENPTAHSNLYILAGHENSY
Chain of Serine/threonine-protein kinase Chk2 (Homo sapiens) (O96017 whole entry, canonical isoform): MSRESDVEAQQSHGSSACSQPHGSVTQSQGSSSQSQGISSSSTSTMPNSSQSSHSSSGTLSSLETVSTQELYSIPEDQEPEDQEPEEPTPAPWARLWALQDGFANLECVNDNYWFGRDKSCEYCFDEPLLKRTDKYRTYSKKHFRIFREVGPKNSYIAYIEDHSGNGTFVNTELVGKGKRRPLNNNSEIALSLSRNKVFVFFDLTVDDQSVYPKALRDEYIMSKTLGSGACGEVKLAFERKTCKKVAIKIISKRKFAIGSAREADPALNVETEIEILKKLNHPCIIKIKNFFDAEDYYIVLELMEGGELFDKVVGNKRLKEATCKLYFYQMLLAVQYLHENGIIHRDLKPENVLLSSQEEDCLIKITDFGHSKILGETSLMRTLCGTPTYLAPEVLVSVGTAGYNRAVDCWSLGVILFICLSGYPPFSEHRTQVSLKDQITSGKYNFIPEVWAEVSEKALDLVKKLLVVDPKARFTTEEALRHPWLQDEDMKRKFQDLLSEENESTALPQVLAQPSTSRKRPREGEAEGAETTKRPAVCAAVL
Chain of Histone-lysine N-methyltransferase KMT5B (Homo sapiens) (Q4FZB7 whole entry, looked up): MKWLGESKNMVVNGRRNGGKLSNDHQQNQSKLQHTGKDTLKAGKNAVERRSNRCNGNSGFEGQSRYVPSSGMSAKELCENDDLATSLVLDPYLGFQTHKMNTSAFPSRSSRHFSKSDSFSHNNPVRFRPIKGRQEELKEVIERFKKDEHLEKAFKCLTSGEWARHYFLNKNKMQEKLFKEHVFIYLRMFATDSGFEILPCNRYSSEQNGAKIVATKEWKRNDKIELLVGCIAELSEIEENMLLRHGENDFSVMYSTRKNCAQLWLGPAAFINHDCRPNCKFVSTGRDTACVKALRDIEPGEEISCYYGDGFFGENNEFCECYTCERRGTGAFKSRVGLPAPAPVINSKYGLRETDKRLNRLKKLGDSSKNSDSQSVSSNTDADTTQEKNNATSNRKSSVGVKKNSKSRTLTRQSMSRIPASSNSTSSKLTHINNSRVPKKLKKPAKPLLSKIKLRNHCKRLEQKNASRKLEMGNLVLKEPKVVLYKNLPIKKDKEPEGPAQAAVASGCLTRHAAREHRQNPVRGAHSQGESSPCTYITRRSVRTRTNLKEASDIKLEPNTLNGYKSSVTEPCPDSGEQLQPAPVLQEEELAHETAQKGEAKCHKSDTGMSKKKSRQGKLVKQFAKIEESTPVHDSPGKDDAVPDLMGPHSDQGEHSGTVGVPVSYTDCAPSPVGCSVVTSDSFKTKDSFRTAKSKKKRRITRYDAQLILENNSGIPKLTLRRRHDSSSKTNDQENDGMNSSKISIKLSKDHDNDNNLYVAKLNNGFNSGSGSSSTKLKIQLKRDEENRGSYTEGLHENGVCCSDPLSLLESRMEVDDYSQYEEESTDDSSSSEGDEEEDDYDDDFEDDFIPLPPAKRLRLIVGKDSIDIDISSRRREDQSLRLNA

Consider `O=C(NOC[C@H](O)CO)c1ccc(F)c(F)c1Nc1ccc(I)cc1F`, for which, in [1], the % of control was found to be 100%.

On to `CN(C)CC#Cc1ccc2[nH]c3c(c2c1)-c1nc(N)ncc1CCC3`, for which the % of control in test [2] is 96%.

As for `CNCCN1CCC(c2cc(CN(C)C(=O)c3cccc(Oc4ccccc4)c3)ccn2)CC1`, the % activity in test [3] is > 90%.

Turning to `C=CC(=O)Nc1cccc(C(=O)Nc2ccc(Nc3cc(-c4[nH]c(SC)nc4C)ccn3)cc2)c1`, in test [4], the % of control worked out at 62%.

With `COc1cc(Nc2nc(C)cc(-c3cnn4nc(OC)ccc34)n2)cc(C(F)(F)F)c1`, the % of control in [5] was found to be 100%; in [6] it was 54%.

`CN(C)CCOc1ccc(-c2nc(-c3ccncc3)c(-c3ccc4c(c3)CC/C4=N\O)[nH]2)cc1`: the % of control in test [7] was 100%.

Regarding `O[C@H]1CC[C@H](Nc2ncc3nc(Nc4c(F)cc(F)cc4F)n([C@H]4CCOC4)c3n2)CC1`, the % of control in test [8] was determined as 100%.

In the case of `CCn1c(-c2nc3cc(C(=O)N4CCCC(N)C4)ccc3n2C)cc2ccccc21` (centres undefined), the pXC50 on Mu-type opioid receptor was < 4 M.
